Tested on: 188146-221-R-J1-PDC complex spheroid viability
Assay: Anticancer human tumor 188146-221-R-J1-PDC patient-derived colon adenocarcinoma cell line growth inhibition [POLQ]
Settings: for IC50: curve of first compound; for viability, T/C: stronger effect = lower value
Protocol: Multicellular complex tumor spheroid response to Polymerase (POL) inhibitors (novobiocin, ART-558, RP6685) in combination with a variety of drugs and investigational agents in selected tumor cell lines
The POL inhibitors (novobiocin, ART-558, and RP6685) were evaluated both individually and in combination with standard of care and investigational anticancer small molecules within a complex spheroid model of solid tumors. . Complex spheroids include a stromal component modeled by human endothelial cells (HUVEC) and fibroblasts modeled by human mesenchymal stem cells (MSCs). The concentration ranges selected for each drug and investigational agent were based upon clinically achievable concentrations if the clinical Cmax of the agent was known.
Compounds. The drugs and investigational agents: novobiocin (NSC847541), ART-558 (NSC835418), RP-6685 (NSC848927), peposertib (NSC802822), ceralasertib (NSC780249), elimusertib (NSC800525), camonsertib (NSC841442), AZD-1390 (NSC803789), olaparib (NSC753686), talazoparib (NSC767125), rucaparib (NSC756644), sotorasib (NSC818433), MRTX-1133 (NSC836407), SN-38 (NSC673596), topotecan (NSC609699), epotoside (NSC141540), doxorubicin (NSC123127), gemcitabine (NSC613327), 5-fluorouracil (NSC19893), paclitaxel (NSC125973), vemurafenib (NSC761431), MSA-2 (NSC828583), SN-011 (NSC837082), adavosertib (NSC754352), prexasertib (NSC758257), carboplatin (NSC241240) and oxaliplatin (NSC266046), were obtained from the National Cancer Institute (NCI) Developmental Therapeutics Program Chemical Repository (21). The FDA-approved anticancer drug set is available from the Developmental Therapeutics Program at https://dtp.cancer.gov/organization/dscb/obtaining/. […] The stock solutions were prepared in dimethyl sulfoxide (DMSO, Sigma-Aldrich, St. Louis, MO, cat. D2650), except for the platinum compounds which were prepared in saline (Quality Biological, Gaithersburg, MD, cat. 114-055-101), at 800-fold the tested concentration and stored at -70 degrees C prior to their use. All drugs and investigational agents were tested over a range starting from a high concentration at or near the clinical Cmax and decreasing in half-log increments. If the clinical Cmax for an agent had not been determined, the highest concentration tested was 10 microM, except for SN-38, which was tested at a high concentration of 1 microM.
Cell Culture. All cells were maintained in an incubator at 37 degrees C and 5% CO2 with 95% humidity. The PDC lines were cultured according to standard operating procedures established by the NCI PDMR (https://pdmr.cancer.gov). Table 3 of the manuscript, lists the cell lines along with the number of the three cell types plated to form the mct-spheroids and media for tumor cell growth. After thawing, all PDC lines, except 997537-175-T-J1-PDC and 415267-285-R-J2-PDC, were cultured in Matrigel-coated flasks prepared with a working solution of 1X Ham's F-12 nutrient mix, without supplementation (Thermo Fisher Scientific, cat. 11765054), 100 U/mL penicillin-streptomycin (Thermo Fisher Scientific, cat. 15140122), and 2.5% Matrigel (Corning Inc., Corning, NY, cat. 354248) for the first three passages. The two PDC lines 997537-175-T-J1-PDC and 415267-285-R-J2-PDC were cultured on uncoated flasks. The 857933-349-R-J2-PDC line was cultured in 6C/Colon 1B media containing advanced DMEM/F-12 (Thermo Fisher Scientific, cat. 12634028), 10 mM HEPES (Thermo Fisher Scientific, cat. 15630080), 1X GlutaMAX supplement (Thermo Fisher Scientific, cat. 35050061), 0.1 mg/mL primocin (InvivoGen, San Diego, CA, cat. ant-pm-2), 10% defined fetal bovine serum, heat inactivated (HyClone Laboratories Inc., Logan, UT, cat. SH30070.03HI), 50% L-WRN conditioned media (ATCC, cat. CRL-3276), 1.25 mM N-Acetyl-L-cysteine (Sigma-Aldrich, cat. A9165), 10 mM nicotinamide (Sigma-Aldrich, cat. N0636), 1X B-27 supplement (Thermo Fisher Scientific, cat. 17504044), 1X N-2 supplement (Thermo Fisher Scientific, cat. […]

[1] = second compound 0.0316 µM, first compound 0.0316 µM
[2] = second compound 0.0316 µM, first compound 0.1 µM
[3] = second compound 0.0316 µM, first compound 0.316 µM
[4] = second compound 0.0316 µM, first compound 1 µM
[5] = second compound 0.0316 µM, first compound 3.16 µM
[6] = second compound 0.0316 µM, first compound 10 µM
[7] = second compound 0.1 µM, first compound 0.0316 µM
[8] = second compound 0.1 µM, first compound 0.1 µM
[9] = second compound 0.1 µM, first compound 0.316 µM
[10] = second compound 0.1 µM, first compound 1 µM
[11] = second compound 0.1 µM, first compound 3.16 µM
[12] = second compound 0.1 µM, first compound 10 µM
[13] = second compound 0.316 µM, first compound 0.0316 µM
[14] = second compound 0.316 µM, first compound 0.1 µM
[15] = second compound 0.316 µM, first compound 0.316 µM
[16] = second compound 0.316 µM, first compound 1 µM
[17] = second compound 0.316 µM, first compound 3.16 µM
[18] = second compound 0.316 µM, first compound 10 µM
[19] = second compound 1 µM, first compound 0.0316 µM
[20] = second compound 1 µM, first compound 0.1 µM
[21] = second compound 1 µM, first compound 0.316 µM
[22] = second compound 1 µM, first compound 1 µM
[23] = second compound 1 µM, first compound 3.16 µM
[24] = second compound 1 µM, first compound 10 µM
[25] = second compound 3.16 µM, first compound 0.0316 µM
[26] = second compound 3.16 µM, first compound 0.1 µM
[27] = second compound 3.16 µM, first compound 0.316 µM
[28] = second compound 3.16 µM, first compound 1 µM
[29] = second compound 3.16 µM, first compound 3.16 µM
[30] = second compound 3.16 µM, first compound 10 µM
[31] = second compound 10 µM, first compound 0.0316 µM
[32] = second compound 10 µM, first compound 0.1 µM
[33] = second compound 10 µM, first compound 0.316 µM
[34] = second compound 10 µM, first compound 1 µM
[35] = second compound 10 µM, first compound 3.16 µM
[36] = second compound 10 µM, first compound 10 µM
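Further: spheroids exposed to compounds for seven days.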
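Wherever viability, T/C is given: 100% = DMSO vehicle control viability.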

For `COc1cc2cc(C(=O)CCC(=O)O)sc2cc1OC` + COC1C(OC(N)=O)C(O)C(Oc2ccc3c(O)c(NC(=O)c4ccc(O)c(CC=C(C)C)c4)c(=O)oc3c2C)OC1(C)C, the IC50 (second compound 0.0316 µM) was > 10 µM, the IC50 (second compound 0.1 µM) was > 10 µM and the IC50 (second compound 0.316 µM) was > 10 µM. For the same compound, the IC50 (second compound 1 µM) was > 10 µM, the IC50 (second compound 3.16 µM) was > 10 µM and the IC50 (second compound 10 µM) was > 10 µM. For the same compound, the viability, T/C [1] was 108%, the viability, T/C [2] was 107% and the viability, T/C [3] was 107%. It also gave a viability, T/C [4] of 111%, a viability, T/C [5] of 107% and a viability, T/C [6] of 98%. The viability, T/C [7] was 105%, the viability, T/C [8] was 98.3% and the viability, T/C [9] was 99.9%. For the same compound, the viability, T/C [10] was 99.8%, the viability, T/C [11] was 92.9% and the viability, T/C [12] was 98.3%. It also gave a viability, T/C [13] of 103%, a viability, T/C [14] of 107% and a viability, T/C [15] of 99.7%. For the same compound, the viability, T/C [16] was 94.9%, the viability, T/C [17] was 95.6% and the viability, T/C [18] was 93%. The viability, T/C [19] was 101%, the viability, T/C [20] was 96.8% and the viability, T/C [21] was 83.6%. The viability, T/C [22] was 100%, the viability, T/C [23] was 101% and the viability, T/C [24] was 101%. It also gave a viability, T/C [25] of 102%, a viability, T/C [26] of 94.1% and a viability, T/C [27] of 95.7%. It also gave a viability, T/C [28] of 84.3%, a viability, T/C [29] of 114% and a viability, T/C [30] of 108%. The viability, T/C [31] was 105%, the viability, T/C [32] was 92% and the viability, T/C [33] was 108%. The viability, T/C [34] was 101%, the viability, T/C [35] was 111% and the viability, T/C [36] was 109%.

For `COc1ccc([C@@H](O)c2cc(-c3ncnc4cc(N5CCOCC5)ccc34)c(F)cc2Cl)nn1` + COC1C(OC(N)=O)C(O)C(Oc2ccc3c(O)c(NC(=O)c4ccc(O)c(CC=C(C)C)c4)c(=O)oc3c2C)OC1(C)C, the IC50 (second compound 0.0316 µM) was 4.19 µM, the IC50 (second compound 0.1 µM) was 5.77 µM and the IC50 (second compound 0.316 µM) was 4.27 µM. The IC50 (second compound 1 µM) was 5.01 µM, the IC50 (second compound 3.16 µM) was 5.75 µM and the IC50 (second compound 10 µM) was 5.36 µM. For the same compound, the viability, T/C [1] was 105%, the viability, T/C [2] was 95.4% and the viability, T/C [3] was 81.4%. The viability, T/C [4] was 76.8%, the viability, T/C [5] was 61.2% and the viability, T/C [6] was 27.1%. For the same compound, the viability, T/C [7] was 92.8%, the viability, T/C [8] was 89.3% and the viability, T/C [9] was 96.2%. For the same compound, the viability, T/C [10] was 84.6%, the viability, T/C [11] was 65.3% and the viability, T/C [12] was 36.3%. For the same compound, the viability, T/C [13] was 107%, the viability, T/C [14] was 91.3% and the viability, T/C [15] was 102%. For the same compound, the viability, T/C [16] was 83.4%, the viability, T/C [17] was 58.7% and the viability, T/C [18] was 26.2%. It also gave a viability, T/C [19] of 96%, a viability, T/C [20] of 96.9% and a viability, T/C [21] of 97.5%. The viability, T/C [22] was 83.2%, the viability, T/C [23] was 65.3% and the viability, T/C [24] was 28.1%. The viability, T/C [25] was 108%, the viability, T/C [26] was 95.8% and the viability, T/C [27] was 97.8%. It also gave a viability, T/C [28] of 84.3%, a viability, T/C [29] of 72.1% and a viability, T/C [30] of 31.4%. The viability, T/C [31] was 108%, the viability, T/C [32] was 84.5% and the viability, T/C [33] was 113%. It also gave a viability, T/C [34] of 63.4%, a viability, T/C [35] of 75.7% and a viability, T/C [36] of 30%.

With `O=C(Nc1ccc(O)c(NS(=O)(=O)c2ccc(F)cc2)c1)c1ccc(-c2ccccc2)cc1` + COC1C(OC(N)=O)C(O)C(Oc2ccc3c(O)c(NC(=O)c4ccc(O)c(CC=C(C)C)c4)c(=O)oc3c2C)OC1(C)C the IC50 (second compound 0.0316 µM) was > 10 µM, the IC50 (second compound 0.1 µM) was > 10 µM and the IC50 (second compound 0.316 µM) was > 10 µM. For the same compound, the IC50 (second compound 1 µM) was > 10 µM, the IC50 (second compound 3.16 µM) was > 10 µM and the IC50 (second compound 10 µM) was > 10 µM. For the same compound, the viability, T/C [1] was 104%, the viability, T/C [2] was 95% and the viability, T/C [3] was 99.7%. For the same compound, the viability, T/C [4] was 97.6%, the viability, T/C [5] was 86.5% and the viability, T/C [6] was 89%. The viability, T/C [7] was 106%, the viability, T/C [8] was 104% and the viability, T/C [9] was 96.5%. For the same compound, the viability, T/C [10] was 99.4%, the viability, T/C [11] was 98.8% and the viability, T/C [12] was 75.2%. It also gave a viability, T/C [13] of 95%, a viability, T/C [14] of 108% and a viability, T/C [15] of 101%. For the same compound, the viability, T/C [16] was 100%, the viability, T/C [17] was 88.2% and the viability, T/C [18] was 69.4%. The viability, T/C [19] was 102%, the viability, T/C [20] was 96.2% and the viability, T/C [21] was 105%. It also gave a viability, T/C [22] of 101%, a viability, T/C [23] of 94.4% and a viability, T/C [24] of 79.5%. For the same compound, the viability, T/C [25] was 105%, the viability, T/C [26] was 106% and the viability, T/C [27] was 108%. It also gave a viability, T/C [28] of 88.7%, a viability, T/C [29] of 97.4% and a viability, T/C [30] of 73.1%. The viability, T/C [31] was 96.9%, the viability, T/C [32] was 95.8% and the viability, T/C [33] was 113%. It also gave a viability, T/C [34] of 102%, a viability, T/C [35] of 103% and a viability, T/C [36] of 83.3%.
